Laboratory results reported in patent publication US20260216294A1, “BETA 2-ADRENERGIC RECEPTOR AGONISTS FOR TREATMENT OR PREVENTION OF MUSCLE WASTING” (ATROGI AB, priority 2023, published 2026).

How the values were obtained:
L6-myotubes [1] = assay: Glucose uptake in differentiated L6-myotubes (Biological Example 2); type: cell-based; settings: for Emax at 10 µM: read-out: Biological example 2 (GU)
In short: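 Uptake was quantified as radioactivity in 0.2 M NaOH lysates after a 10 min pulse of 50 nM ^3H-2-deoxyglucose. The pulse followed two agonist exposures at 1×10^−5 M final (isoprenaline or test compound): 1 h 40 min, then 20 min in glucose-free medium after washing. L6 myotubes had been starved overnight in medium with 0.5% fatty-acid-free BSA.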

L6-myotubes [2] = assay: Measurement of intracellular cAMP levels in differentiated L6-myotubes (Biological Example 3); type: cell-based; settings: for Emax at 10 µM: 0.25 h
In short: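 Intracellular cAMP quantified by AlphaScreen after ethanol extraction and lysis of L6 myotubes. Cells were serum-starved overnight, then exposed for 15 min to compound (final 1×10^−5 M) or isoprenaline in IBMX-containing (1 mM) HBSS buffer, pH 7.4.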

[3] = glucose uptake in differentiated L6-myotubes, compound at 10 μM, activity relative to isoproterenol at 10 μM
[4] = intracellular cAMP in differentiated L6-myotubes, compound at 10 μM, activity relative to isoproterenol at 10 μM
[5] = glucose uptake, compound at 10 μM relative to isoproterenol at 10 μM
[6] = intracellular cAMP, compound at 10 μM relative to isoproterenol at 10 μM

CO[C@H]1CC[C@H](C[C@H]2CC[C@H]([C@@H](O)c3ccccc3F)N2)CC1 [Compound 338, (S)-[(2R,5R)-5-{[(1r,4R)-4-methoxycyclohexyl]methyl}-2-pyrrolidinyl](o-fluorophenyl)methanol] was tested, and the Emax at 10 µM (L6-myotubes [1]; [3]) was 50 to 75% and the Emax at 10 µM (L6-myotubes [2]; [4]) was < 25%.
CCC[C@H]1CCC[C@H]([C@H](O)c2cccc(F)c2)N1 [Compound 69] was tested, and the Emax at 10 µM (L6-myotubes [1]; [5]) was 50 to 75% and the Emax at 10 µM (L6-myotubes [2]; [6]) was < 25%.
In the case of CC12CC(C1)[C@H]([C@@H](O)c1cncc(F)c1)N2 [Compound 222, (S)-{(R)-1-methyl-2-azabicyclo[[2.1.1]]hex-3-yl}(5-fluoro-3-pyridyl)methanol], the Emax at 10 µM (L6-myotubes [1]; [3]) is reported as < 25% and the Emax at 10 µM (L6-myotubes [2]; [4]) is reported as < 25%.
With CO[C@H]1CC[C@H](C[C@@H]2CC[C@H]([C@@H](O)c3ccccc3F)N2)CC1 [Compound 336, (S)-[(2R,5S)-5-{[(1r,4S)-4-methoxycyclohexyl]methyl}-2-pyrrolidinyl] (o-fluorophenyl)methanol] the Emax at 10 µM (L6-myotubes [1]; [3]) was 25 to 50% and the Emax at 10 µM (L6-myotubes [2]; [4]) was < 25%.
With CC(C)(NC[C@H](O)c1cccc(F)c1)[C@H]1CC[C@H](N)CC1 [Compound 381] the Emax at 10 µM (L6-myotubes [1]; [3]) was 50 to 75% and the Emax at 10 µM (L6-myotubes [2]; [4]) was < 25%.
With CCC[C@@H]1CC[C@H]([C@@H](O)c2cccc(O)c2)N1 [Compound 127, m-{(S)-[(2R,5R)-5-propyl-2-pyrrolidinyl] hydroxymethyl}phenol] the “Biological example 2 (GU)” value (L6-myotubes [1]; [5]) was “+ (if it is between 50 and 25% it is denoted with +)” and the “Biological example 3 (CAMP)” value (L6-myotubes [2]; [6]) was “− (if it less than 25% it is denoted with −)”.
With CC(C)(C[C@H]1CC[C@H](N)CC1)NC[C@H](O)c1cccc(F)c1 [Compound 371] the Emax at 10 µM (L6-myotubes [1]; [3]) was > 75% and the Emax at 10 µM (L6-myotubes [2]; [4]) was < 25%.
Cc1ncccc1[C@@H](O)CNC(C)(C)C[C@H]1CC[C@@H](NS(C)(=O)=O)CC1 [Compound 437, (R)-2-{1,1-dimethyl-2-[(1s,4S)-4-(mesylamino)cyclohexyl]ethylamino}-1-(2-methyl-3-pyridyl)-1-ethanol] was tested, and the Emax at 10 µM (L6-myotubes [1]; [3]) was 25 to 50% and the Emax at 10 µM (L6-myotubes [2]; [4]) was < 25%.
With CC1(C)C[C@H]([C@H](O)c2cncc(F)c2)N1 [Compound 214] the Emax at 10 µM (L6-myotubes [1]; [3]) was > 75% and the Emax at 10 µM (L6-myotubes [2]; [4]) was < 25%.
In the case of CC1(C)CCC[C@H]([C@@H](O)c2cccc(Cl)c2)N1 [Compound 164], the Emax at 10 µM (L6-myotubes [1]; [5]) is reported as 50 to 75% and the Emax at 10 µM (L6-myotubes [2]; [6]) is reported as < 25%.
With CC(C)(NC[C@H](O)c1cccc(F)c1)[C@H]1CC[C@H](OCC(=O)O)CC1 [Compound 402] the Emax at 10 µM (L6-myotubes [1]; [3]) was 50 to 75% and the Emax at 10 µM (L6-myotubes [2]; [4]) was < 25%.
In the case of CC(C)(C[C@H]1CC[C@H](NC(=O)C2CCC2)CC1)NC[C@H](O)c1cccc(F)c1 [Compound 431], the Emax at 10 µM (L6-myotubes [1]; [3]) is reported as > 75% and the Emax at 10 µM (L6-myotubes [2]; [4]) is reported as 50 to 75%.
Work on CC(C)(C[C@H]1CC[C@H](NC(=O)OC(C)(C)C)CC1)NC[C@H](O)c1cccc(F)c1 [Compound 420, (1R,4r)-4-{2-[(R)-2-(m-fluorophenyl)-2-hydroxyethylamino]-2-methylpropyl}cyclohexy-2-methyl-2-propanecarbamate] yielded an Emax at 10 µM (L6-myotubes [1]; [3]) of 50 to 75% and an Emax at 10 µM (L6-myotubes [2]; [4]) of 25 to 50%.
With CC12CC(C1)[C@@H]([C@H](O)c1ccccc1F)N2 [Compound 213] the Emax at 10 µM (L6-myotubes [1]; [3]) was > 75% and the Emax at 10 µM (L6-myotubes [2]; [4]) was < 25%.
With CCCCNC[C@H](O)c1cccc(N)c1F [Compound 90, (R)-1-(3-amino-2-fluorophenyl)-2-(butylamino)-1-ethanol] the Emax at 10 µM (L6-myotubes [1]; [5]) was 50 to 75% and the Emax at 10 µM (L6-myotubes [2]; [6]) was < 25%.
For CCC[C@@H]1CCC[C@@H]([C@@H](O)c2cccc(O)c2)N1 [Compound 113], the Emax at 10 µM (L6-myotubes [1]; [5]) was 50 to 75% and the Emax at 10 µM (L6-myotubes [2]; [6]) was < 25%.
In the case of CS(=O)(=O)N(Cc1ccccc1)c1ccc(CC23CCC([C@H](O)c4cccc(F)c4)(CC2)N3)cc1 [Compound 473], the Emax at 10 µM (L6-myotubes [1]; [3]) is reported as 25 to 50% and the Emax at 10 µM (L6-myotubes [2]; [4]) is reported as < 25%.
With COC(=O)[C@H]1CC[C@H](C(C)(C)NC[C@H](O)c2cncc(F)c2)CC1 [Compound 370, (1R,4r)-8-[(R)-2-(5-fluoro-3-pyridyl)-2-hydroxyethylamino]-7-methoxy-p-menthan-7-one] the Emax at 10 µM (L6-myotubes [1]; [3]) was > 75% and the Emax at 10 µM (L6-myotubes [2]; [4]) was < 25%.
In the case of O[C@@H](c1cccc(F)c1)C12CCC(COCc3ccc(Cl)cc3)(CC1)N2 [Compound 395, (S)-(4-{[(p-chlorophenyl)methoxy]methyl}-7-azabicyclo[[2.2.1]]hept-1-yl)(m-fluorophenyl)methanol], the Emax at 10 µM (L6-myotubes [1]; [3]) is reported as 50 to 75% and the Emax at 10 µM (L6-myotubes [2]; [4]) is reported as < 25%.
With CC(=O)N[C@H]1CC[C@H](CC(C)(C)NC[C@@H](O)c2cccc(C#N)n2)CC1 [Compound 427] the Emax at 10 µM (L6-myotubes [1]; [3]) was < 25% and the Emax at 10 µM (L6-myotubes [2]; [4]) was < 25%.
With O[C@@H](c1cccc(F)c1)C12CCC(CCCc3ccccc3)(CC1)N2 [Compound 535, (S)-(m-fluorophenyl){4-(3-phenylpropyl)-7-azabicyclo[[2.2.1]]hept-1-yl}methanol] the Emax at 10 µM (L6-myotubes [1]; [3]) was 25 to 50% and the Emax at 10 µM (L6-myotubes [2]; [4]) was < 25%.
CC1(C)C[C@@H]([C@H](O)c2cncc(F)c2)N1 [Compound 216] was tested, and the Emax at 10 µM (L6-myotubes [1]; [3]) was 25 to 50% and the Emax at 10 µM (L6-myotubes [2]; [4]) was < 25%.
In the case of CCCCCCCCNCC(O)c1ccc(O)cc1 (centres unmarked) [Compound 18, 1-(p-hydroxyphenyl)-2-(octylamino)-1-ethanol], the Emax at 10 µM (L6-myotubes [1]; [5]) is reported as 25 to 50% and the Emax at 10 µM (L6-myotubes [2]; [6]) is reported as < 25%.
For O[C@@H](c1cccc(F)c1)C12CCC(COc3ccc(Cl)cc3)(CC1)N2 [Compound 440], the Emax at 10 µM (L6-myotubes [1]; [3]) was > 75% and the Emax at 10 µM (L6-myotubes [2]; [4]) was < 25%.
CC1(C)C[C@H]([C@H](O)c2ccccc2F)N1 [Compound 204, (R)-[(R)-4,4-dimethyl-2-azetidinyl](o-fluorophenyl)methanol] was tested, and the Emax at 10 µM (L6-myotubes [1]; [3]) was > 75% and the Emax at 10 µM (L6-myotubes [2]; [4]) was 25 to 50%.
CN(C)C(=O)N[C@H]1CC[C@H](CC(C)(C)NC[C@H](O)c2cccc(F)c2)CC1 [Compound 430, (R)-2-{1,1-dimethyl-2-[(1r,4R)-4-(3,3-dimethylureido)cyclohexyl]ethylamino}-1-(m-fluorophenyl)-1-ethanol] was tested, and the Emax at 10 µM (L6-myotubes [1]; [3]) was > 75% and the Emax at 10 µM (L6-myotubes [2]; [4]) was 50 to 75%.
In the case of CC1(C)CC[C@H]([C@H](O)c2ccccc2Cl)N1 [Compound 152, (R)-[(R)-5,5-dimethyl-2-pyrrolidinyl](o-chlorophenyl)methanol], the Emax at 10 µM (L6-myotubes [1]; [5]) is reported as > 75% and the Emax at 10 µM (L6-myotubes [2]; [6]) is reported as < 25%.
CCCC(C)NCC(O)c1ccc(Cl)c(O)c1 (centres unmarked) [Compound 35, 1-(4-chloro-3-hydroxyphenyl)-2-(1-methylbutylamino)-1-ethanol] was tested, and the Emax at 10 µM (L6-myotubes [1]; [5]) was > 75% and the Emax at 10 µM (L6-myotubes [2]; [6]) was < 25%.
With CC(C)(C[C@H]1CC[C@@H](NS(C)(=O)=O)CC1)NC[C@H](O)c1cncc(F)c1 [Compound 468, (R)-2-{1,1-dimethyl-2-[(1s,4S)-4-(mesylamino)cyclohexyl]ethylamino}-1-(5-fluoro-3-pyridyl)-1-ethanol] the Emax at 10 µM (L6-myotubes [1]; [3]) was > 75% and the Emax at 10 µM (L6-myotubes [2]; [4]) was < 25%.
For O[C@H](c1cncc(F)c1)[C@H]1CC[C@H](Cc2ccc(Cl)cc2)N1 [Compound 406, (R)-{(2R,5R)-5-[(p-chlorophenyl)methyl]-2-pyrrolidinyl}(5-fluoro-3-pyridyl)methanol], the Emax at 10 µM (L6-myotubes [1]; [3]) was > 75% and the Emax at 10 µM (L6-myotubes [2]; [4]) was < 25%.
With CO[C@H]1CC[C@H](CCNC[C@H](O)c2cccc(F)c2)CC1 [Compound 224, (R)-1-(m-fluorophenyl)-2-{2-[(1r,4R)-4-methoxycyclohexyl]ethylamino}-1-ethanol] the Emax at 10 µM (L6-myotubes [1]; [3]) was 25 to 50% and the Emax at 10 µM (L6-myotubes [2]; [4]) was < 25%.
O[C@H](c1cncc(F)c1)C12CCC(COCc3ccc(OC(F)(F)F)cc3)(CC1)N2 [Compound 490] was tested, and the Emax at 10 µM (L6-myotubes [1]; [3]) was 50 to 75% and the Emax at 10 µM (L6-myotubes [2]; [4]) was < 25%.
In the case of CC(C)(C)NC[C@H](O)c1cncc(O)c1 [Compound 100, 5-[(R)-2-(tert-butylamino)-1-hydroxyethyl]-3-pyridinol], the Emax at 10 µM (L6-myotubes [1]; [5]) is reported as > 75% and the Emax at 10 µM (L6-myotubes [2]; [6]) is reported as < 25%.
In the case of O=C(N[C@H]1CC[C@H](CNC[C@H](O)c2cncc(F)c2)CC1)c1ccccc1 [Compound 317], the Emax at 10 µM (L6-myotubes [1]; [3]) is reported as 50 to 75% and the Emax at 10 µM (L6-myotubes [2]; [4]) is reported as < 25%.
With CCC[C@@H](C)NC[C@H](O)c1cccc(O)c1 [Compound 28, (R)-2-[(R)-1-methylbutylamino]-1-(m-hydroxyphenyl)-1-ethanol] the Emax at 10 µM (L6-myotubes [1]; [5]) was > 75% and the Emax at 10 µM (L6-myotubes [2]; [6]) was 50 to 75%.
In the case of CO[C@H]1CC[C@H](CCC23CCC([C@@H](O)c4cccc(F)c4)(CC2)N3)CC1 [Compound 411], the “Biological example 2 (GU)” value (L6-myotubes [1]; [3]) is reported as “+++ (If a compound at 10 μM shows activity of more than 75% of that of isoproterenol at 10 μM, the activity is denoted with +++)” and the “Biological example 3 (CAMP)” value (L6-myotubes [2]; [4]) is reported as “++ (if it is between 75 and 50% it is denoted with ++)”.
With CC(C)(C)NC[C@H](O)c1cccc(C#N)n1 [Compound 387, 6-[(S)-2-(tert-butylamino)-1-hydroxyethyl]-2-pyridinecarbonitrile] the Emax at 10 µM (L6-myotubes [1]; [3]) was > 75% and the Emax at 10 µM (L6-myotubes [2]; [4]) was 25 to 50%.
With CC(C)(C)NC[C@H](O)c1cccc(C(F)(F)F)n1 [Compound 397, (S)-2-(tert-butylamino)-1-[6-(trifluoromethyl)-2-pyridyl]-1-ethanol] the Emax at 10 µM (L6-myotubes [1]; [3]) was > 75% and the Emax at 10 µM (L6-myotubes [2]; [4]) was < 25%.
For CCCCNC[C@H](O)c1cccc(F)c1F [Compound 77, (R)-2-(butylamino)-1-(2,3-difluorophenyl)-1-ethanol], the Emax at 10 µM (L6-myotubes [1]; [5]) was > 75% and the Emax at 10 µM (L6-myotubes [2]; [6]) was < 25%.
For O[C@@H](c1cncc(F)c1)C12CCC(CCc3ccc(OC(F)(F)F)cc3)(CC1)N2 [Compound 543, (S)-(5-fluoro-3-pyridyl){4-[2-(p-trifluoromethoxyphenyl)ethyl]-7-azabicyclo[[2.2.1]]hept-1-yl}methanol], the Emax at 10 µM (L6-myotubes [1]; [3]) was < 25% and the Emax at 10 µM (L6-myotubes [2]; [4]) was < 25%.
